Laboratory results taken from EPA's ToxValDB 9.5 (doi:10.2903/j.efsa.2010.1406).

How the values were obtained:
[1] = test system: Rattus norvegicus
[2] = subchronic; duration: 90 days
[3] = subchronic, duration: 90 days, oral, diet

With `Cc1cc(SC(=O)CC(C)C)c(C)o1` [2,5-Dimethyl-3-thioisovalerylfuran] as the molecule, how does the NOEL ([1]; subchronic, duration: 90 days) read?
The NOEL was 0.73 mg/kg-day.

Which NOAEL [2] does the source give for `CSC(=O)c1ccco1` [2-Furancarbothioic acid, S-methyl ester] here?
Its NOAEL is 6.7 mg/kg-day.

For `CC(=O)SC1=C(C)OCC1` [2-Methyl-3-thioacetoxy-4,5-dihydrofuran], which NOEL ([1]; chronic, duration: 1 years, oral, diet) is on record?
The NOEL was 8.3 mg/kg-day.

For `CC(=O)CC(C)SCc1ccco1` (centres undefined) [4-{[(Furan-2-yl)methyl]sulfanyl}pentan-2-one], which NOAEL [1, 3] is on record?
Its NOAEL is 3.76 mg/kg-day.

For `Cc1occc1SSSSc1ccoc1C` [Bis(2-methyl-3-furyl) tetrasulfide], which NOEL ([1]; subchronic, duration: 90 days) is on record?
The NOEL was 0.56 mg/kg-day.

For `Cc1occc1SSc1ccoc1C` [Bis(2-methyl-3-furyl)disulfide], which NOEL [1, 3] is on record?
The NOEL was 0.45 mg/kg-day.

With `CCOC(=O)CCSCc1ccco1` [Ethyl 3-(furfurylthio)propionate] as the molecule, how does the NOEL ([1]; subchronic, duration: 90 days) read?
The NOEL was 17 mg/kg-day.

For `Cc1cc(SSc2cc(C)oc2C)c(C)o1` [Furan, 3,3'-dithiobis[2,5-dimethyl-], which NOEL [1, 3] is on record?
Its NOEL is 0.45 mg/kg-day.

Which NOAEL [2] does the source give for `CCSC(C)=O` [S-Ethyl thiolacetate] here?
Its NOAEL is 6.7 mg/kg-day.
